The NIST ThermoML archive (doi:10.1021/acs.jced.6b00781)
Numbers after ± are expanded uncertainties.

Details: Crystal

Normal melting temperature (visual observation) [°C] | Normal melting temperature (DTA) [°C] | Structure (SMILES)
97.39 ± 2 |  | Oc1cccc2ccccc12 [1-naphthol]
 | 123.83 ± 2 | Oc1ccc2ccccc2c1 [2-hydroxynaphthalene]
